Source: US20080255169A1 (priority 2004, published 2008)
Read-outs that look alike come from different tables or passages of the source.

Target: α2β1 integrin (Homo sapiens, UniProt P05556+P17301)
Test: Cell adhesion assay
Type: cell-based
Settings: for Emax: read-out: Emax in cell adhesion assay
[1] = read-out: EC50 in cell adhesion assay

Chain of α2β1 integrin (P17301 30-1181): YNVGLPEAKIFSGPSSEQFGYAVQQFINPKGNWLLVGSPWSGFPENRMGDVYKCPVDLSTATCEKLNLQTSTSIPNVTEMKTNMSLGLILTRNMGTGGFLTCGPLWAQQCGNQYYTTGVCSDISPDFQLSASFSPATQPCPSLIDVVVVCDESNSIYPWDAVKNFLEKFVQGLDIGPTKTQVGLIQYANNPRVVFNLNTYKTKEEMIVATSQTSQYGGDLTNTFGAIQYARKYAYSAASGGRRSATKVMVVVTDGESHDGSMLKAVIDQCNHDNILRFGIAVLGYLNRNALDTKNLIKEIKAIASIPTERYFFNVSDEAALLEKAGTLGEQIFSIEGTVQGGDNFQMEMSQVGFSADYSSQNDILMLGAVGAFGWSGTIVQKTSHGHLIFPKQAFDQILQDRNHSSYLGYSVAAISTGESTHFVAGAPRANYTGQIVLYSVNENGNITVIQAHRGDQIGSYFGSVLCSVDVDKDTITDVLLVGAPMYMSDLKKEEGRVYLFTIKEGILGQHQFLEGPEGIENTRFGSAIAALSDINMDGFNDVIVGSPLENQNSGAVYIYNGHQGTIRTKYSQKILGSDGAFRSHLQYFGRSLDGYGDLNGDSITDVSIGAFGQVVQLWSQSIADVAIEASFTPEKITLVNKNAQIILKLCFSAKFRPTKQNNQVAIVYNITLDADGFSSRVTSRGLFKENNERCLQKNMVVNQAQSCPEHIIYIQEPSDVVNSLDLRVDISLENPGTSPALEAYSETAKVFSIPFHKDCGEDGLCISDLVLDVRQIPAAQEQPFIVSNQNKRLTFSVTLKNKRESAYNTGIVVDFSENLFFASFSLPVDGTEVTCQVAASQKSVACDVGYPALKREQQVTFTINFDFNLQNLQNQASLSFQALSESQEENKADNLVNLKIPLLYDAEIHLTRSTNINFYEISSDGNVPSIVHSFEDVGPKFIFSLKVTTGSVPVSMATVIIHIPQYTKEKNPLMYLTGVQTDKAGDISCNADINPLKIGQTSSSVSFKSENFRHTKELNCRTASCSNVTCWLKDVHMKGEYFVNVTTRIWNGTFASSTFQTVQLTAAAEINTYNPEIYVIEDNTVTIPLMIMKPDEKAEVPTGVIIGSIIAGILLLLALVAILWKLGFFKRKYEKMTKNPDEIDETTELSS
Chain of α2β1 integrin (P05556 21-798 partner): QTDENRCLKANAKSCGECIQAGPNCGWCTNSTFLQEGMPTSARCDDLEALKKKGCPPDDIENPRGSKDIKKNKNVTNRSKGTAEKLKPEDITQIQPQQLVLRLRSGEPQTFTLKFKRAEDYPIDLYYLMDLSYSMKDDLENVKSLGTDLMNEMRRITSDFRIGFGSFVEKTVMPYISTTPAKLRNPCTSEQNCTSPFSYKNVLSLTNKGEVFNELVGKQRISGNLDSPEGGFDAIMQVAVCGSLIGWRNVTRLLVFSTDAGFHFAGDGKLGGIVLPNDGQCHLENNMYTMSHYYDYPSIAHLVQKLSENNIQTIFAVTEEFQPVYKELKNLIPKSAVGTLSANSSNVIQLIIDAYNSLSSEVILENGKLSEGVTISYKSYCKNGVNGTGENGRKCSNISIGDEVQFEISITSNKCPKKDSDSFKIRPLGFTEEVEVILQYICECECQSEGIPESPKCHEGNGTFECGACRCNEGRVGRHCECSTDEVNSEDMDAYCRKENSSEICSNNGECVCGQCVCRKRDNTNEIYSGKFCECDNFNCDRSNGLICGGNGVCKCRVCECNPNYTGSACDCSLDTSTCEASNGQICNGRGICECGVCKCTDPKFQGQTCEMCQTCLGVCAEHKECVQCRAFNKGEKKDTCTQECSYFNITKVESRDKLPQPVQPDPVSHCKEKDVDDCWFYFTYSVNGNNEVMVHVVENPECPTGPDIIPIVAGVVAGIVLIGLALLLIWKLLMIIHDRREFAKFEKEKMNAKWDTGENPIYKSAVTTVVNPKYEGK

SMILES | Emax (concentration not given) | EC50 [1] | other results
CN(C)c1ccc(NS(=O)(=O)c2cc(-c3ccc(F)cc3)c(-c3ccc(F)cc3)s2)cc1 [Compound 317] | 45% | 44 µM | 
COc1cc(OC)nc(-c2ccc(NS(=O)(=O)c3ccc(-c4cnco4)s3)cc2)n1 [Compound 286, 5-oxazol-5-yl-thiophene-2-sulfonic acid [4-(4,6-dimethoxypyrimidin-2-yl)-phenyl]-amide] | 72% | 37 µM | 
Cc1nc2cc(NS(=O)(=O)c3cccc(-c4ccc(F)cc4)c3)ccc2o1 [Compound 190, 4′-fluoro-biphenyl-3-sulfonic acid (2-methyl-benzooxazol-5-yl)-amide] | 76% | 25 µM | 
O=S(=O)(Nc1ccc2ncsc2c1)c1cccc(Br)c1 [Compound 139, N-benzolthiazol-6-yl-3-bromo-benzenesulfonamide] | 75% | 46 µM | 
CN(C)c1ccc(NS(=O)(=O)c2cc(Br)c(F)cc2F)cc1 [Compound 192, 5-bromo-N-[4-(dimethylamino)phenyl]-2,4-difluoro benzene sulfonamide] | 75% | 39 µM | 
COc1cc(OC)nc(-c2ccc(NS(=O)(=O)c3ccc4ccccc4c3)cc2)n1 [Compound 266] | 70% | 18 µM | 
Cc1cc2cc(NS(=O)(=O)c3cccc(C(F)(F)F)c3)ccc2[nH]1 [Compound 230] |  | > 30 µM | Emax at 50 µM: 76%
COc1ccc(NS(=O)(=O)c2cccc(-c3ccc(F)cc3)c2)cc1 [Compound 250] | 89% | 31 µM | 
Cc1cc(C)nc(N(C)c2ccc(NS(=O)(=O)c3ccc(Cl)cc3Cl)cc2)n1 [Compound 50, 2,4-dichloro-N-{4-[(4,6-dimethylpyrimidin-2-yl)(methyl)amino]phenyl}benzenesulphonamide] | 60% | 17 µM | 
COc1cc(OC)nc(-c2ccc(NS(=O)(=O)c3ccc(Cl)c(Cl)c3)cc2)n1 [Compound 255] |  | 17 µM | Emax at 50 µM: 88%
Cc1nc2cc(NS(=O)(=O)c3cccc(-c4ccc(F)cc4)c3)ccc2s1 [Compound 188, 4′-fluoro-biphenyl-3-sulfonic acid (2-methyl-benzothiazol-5-yl)-amide] | 81% | 36 µM | 
Cc1nc2ccc(NS(=O)(=O)c3cccc(Br)c3)cc2s1 [Compound 195] | 60% | 49 µM | 
CN(C)c1ccc(NS(=O)(=O)c2cc(-c3ccc(F)cc3)c(F)cc2F)cc1 [Compound 202] | 91% | 27 µM | 
Cc1cc2cc(NS(=O)(=O)c3ccc4oc(=O)ccc4c3)ccc2[nH]1 [Compound 234] | 85% | 35 µM | 
O=S(=O)(Nc1ccc(-n2cccc2)cc1)c1ccc(Cl)cc1Cl [Compound 163, 2,4-dichloro-N-(4-pyrrol-1-yl-phenyl)-benzenesulfonamide] |  | 32 µM | Emax at 50 µM: 66%
O=S(=O)(Nc1ccc(Nc2nc(Cl)nc(Cl)c2Cl)cc1)c1ccc(Cl)cc1 [Compound 170] |  | 24 µM | Emax at 40 µM: 85%
COc1ccc(-c2cccc(S(=O)(=O)Nc3ccc(N(C)C)cc3)c2)cc1OC [Compound 142, [4-(3′,4′-dimethoxy-biphenyl-3-sulfonylamino)-phenyl]-dimethylammonium; chloride] | 77% | 20 µM | 
COc1cc(OC)nc(-c2ccc(NS(=O)(=O)c3ccc(Cl)cc3Cl)cc2)n1 [Compound 164, 2,4-dichloro-N-[4-(4,6-dimethoxy-pyrimidin-2-yl)-phenyl]-benzenesulfonamide] |  | 21 µM | Emax at 50 µM: 85%
Cc1cc(F)ccc1-c1ccc(S(=O)(=O)Nc2ccc(N(C)C)cc2)s1 [Compound 307] |  | 20 µM | Emax at 50 µM: 67%
CN(C)c1ccc(NS(=O)(=O)c2cccc(-c3cccc(C#N)c3)c2)cc1 [Compound 275] | 57% | 26 µM | 
Cc1cc2c(n1-c1ccc(NS(=O)(=O)c3ccc(C(F)(F)F)cc3Cl)cc1)CC(C)(C)CC2=O [Compound 283, 2-chloro-4-trifluoromethyl-N-[4-(2,6,6-trimethyl-4-oxo-4,5,-6,7-tetrahydro-indol-1-yl)-phenyl]-benzenesulfonamide] | 63% | 23 µM | 
Cc1cc2c(n1-c1ccc(NS(=O)(=O)c3ccc(-c4cnco4)s3)cc1)CC(C)(C)CC2=O [Compound 258] | 66% | 40 µM | 
O=S(=O)(Nc1ccc(-n2cccn2)cc1)c1cccc(-c2ccc(F)cc2)c1 [Compound 297] | 80% | 26 µM | 
COc1cc(OC)nc(-c2ccc(NS(=O)(=O)c3cccc(-c4ccc(F)cc4)c3)cc2)n1 [Compound 235] | 85% | 20 µM | 
CC(C)(C)c1cc2cc(NS(=O)(=O)c3ccc(Cl)cc3)ccc2[nH]1 [Compound 173] |  | 35 µM | Emax at 40 µM: 59%
O=S(=O)(Nc1ccc2[nH]ccc2c1)c1ccc(Cl)cc1Cl [Compound 134, 2,4-dichloro-N-(1H-indol-5-yl)-benzenesulfonamide] | 40% | 10 µM | 
CN(C)c1ccc(N(C)S(=O)(=O)c2cccc(-c3ccc(F)cc3)c2)cc1 [Compound 282, 4′-fluoro-biphenyl-3-sulfonic acid (4-dimethylaminophenyl)-methylamide] |  | 7 µM | Emax at 50 µM: 59%

SMILES | Emax (concentration not given) | EC50 [1] | other results
CN(C)c1ccc(N(C)S(=O)(=O)c2ccc(Cl)cc2Cl)cc1 [Compound 223, 2,4-dichloro-N-[4-(dimethylamino)phenyl]-N-methyl benzenesulfonamide] | 82% | 13 µM | 
Cc1cc(C)nc(Nc2ccc(NS(=O)(=O)c3ccc(Cl)cc3Cl)cc2)n1 [Compound 182] | 77% | 25 µM | 
Cc1ccc(C)n1-c1ccc(NS(=O)(=O)c2ccc(Cl)cc2Cl)cc1 [Compound 213] |  | 25 µM | Emax at 50 µM: 71%
CN(C)c1ccc(NS(=O)(=O)c2cccc(-c3cccc(O)c3)c2)cc1 [Compound 205] |  | 20 µM | Emax at 50 µM: 84%
Cn1ccc2ccc(NS(=O)(=O)c3cccc(-c4ccc(F)cc4)c3)cc21 [Compound 284, 4′-fluoro-biphenyl-3-sulfonic acid (1-methyl-1H-indol-6-yl)-amide] | 69% | ~30 µM | 
CC(C)(C)c1cc2cc(NS(=O)(=O)c3cccc(-c4ccc(F)cc4)c3)ccc2[nH]1 [Compound 291] | 50% | 32 µM | 
Cc1cc(F)ccc1-c1cccc(S(=O)(=O)N(C)c2ccc(N(C)C)cc2)c1 [Compound 321] | 55% | 6.3 µM | 
CN(c1ccc2c(c1)c1ccccc1n2C)S(=O)(=O)c1ccc(Cl)cc1Cl [Compound 320] | 45% | 10 µM | 
CN(C)c1ccc(NS(=O)(=O)c2ccc(-c3ccc(F)cc3)s2)cc1 [Compound 306] |  | 24 µM | Emax at 50 µM: 67%
CN(C)c1ccc(NS(=O)(=O)c2cccc(-c3ccc(F)c(F)c3)c2)cc1 [Compound 263] |  |  | EC50 (EC50 in cell adhesion assay): 26 µM; Emax: 88%
Cc1nc2cc(N(C)S(=O)(=O)c3cccc(-c4ccc(F)cc4)c3)ccc2o1 [Compound 295] | 56% | 29 µM | 
Cc1cc2cc(N(C)S(=O)(=O)c3cccc(Br)c3)ccc2[nH]1 [Compound 209] |  | 35 µM | Emax at 50 µM: 64%
Cc1cc(C)nc(N(C)c2ccc(N(C)S(=O)(=O)c3ccc(Cl)cc3Cl)cc2)n1 [Compound 302] | 57% | 24 µM | 
Cc1cc(C)nc(Nc2ccc(NS(=O)(=O)c3cccc(-c4ccc(F)cc4)c3)cc2)n1 [Compound 201] |  | 36 µM | Emax at 50 µM: 64%
O=S(=O)(Nc1ccc2c(c1)OCO2)c1cccc(-c2ccc(F)cc2)c1 [Compound 186, 4′-fluoro-biphenyl-3-sulfonic acid benzo[1,3]dioxol-5-yl-amide] | 91% | 19 µM | 
CSc1nc2ccc(NS(=O)(=O)c3ccc(Cl)cc3Cl)cc2s1 [Compound 132] | 90% | 40 µM | 
CN(C)c1ccc(NS(=O)(=O)c2cccc(-c3cccc(F)c3)c2)cc1 [Compound 203] | 86% | 19 µM | 
Cc1nc2ccc(NS(=O)(=O)c3cccc(-c4ccc(F)cc4)c3)cc2o1 [Compound 187, 4′-fluoro-biphenyl-3-sulfonic acid (2-methyl-benzooxazol-6-yl)-amide] | 87% | 18 µM | 
Cc1cc2cc(NS(=O)(=O)c3cccc(Br)c3)ccc2[nH]1 [Compound 197, 3-bromo-N-(2-methyl-1H-indol-5-yl)-benzenesulfonamide] | 74% |  | 
Cc1cc2c(n1-c1ccc(NS(=O)(=O)c3ccc(Cl)c(Cl)c3)cc1)CC(C)(C)CC2=O [Compound 269] | 64% | 19 µM | 
CN(C)c1ccc(NS(=O)(=O)c2cc(-c3ccc(F)cc3)c(Cl)s2)cc1 [Compound 316, 5-chloro-4-(4-fluoro-phenyl)-thiophene-2-sulfonic acid (4-dimethylamino-phenyl)-amide] |  | 10 µM | Emax at 50 µM: 87%
O=S(=O)(Nc1ccc(-n2cnc(Cl)c2Cl)cc1)c1cccc(-c2ccc(F)cc2)c1 [Compound 299] | 79% | 9.6 µM | 
COc1cccc(-c2cccc(S(=O)(=O)Nc3ccc(N(C)C)cc3)c2)c1 [Compound 204] | 63% | ~25 µM | 
O=S(=O)(Nc1ccc(-n2ccnc2)cc1)c1cccc(-c2ccc(F)cc2)c1 [Compound 300] | 50% | 45 µM | 
O=S(=O)(Nc1ccc(-n2cnc(Cl)c2Cl)cc1)c1ccc2ccccc2c1 [Compound 171] | 79% | 20 µM | 
O=S(=O)(Nc1ccc2ncsc2c1)c1cccc(-c2ccc(F)cc2)c1 [Compound 189, 4′-fluoro-biphenyl-3-sulfonic acid benzothiazol-6-ylamide] | 76% |  | 
